The values below are quoted from earlier work in EP2428201A1, “Oral administration of nucleoside monophosphates” (Merck Serono S.A., priority 2010, dated 2012).

The structures appear in SMILES notation.

The conditions of the data set: administered orally, compared to the drug given by injection.

On to `Nc1nc(Cl)nc2c1ncn2[C@H]1C[C@H](O)[C@@H](CO)O1` [cladribine, 2-chloro-2'-deoxyadenosine], for which the bioavailability entry is on record as “reduced bioavailability”.
